# Measured values taken from patent US11236086B2, “Substituted pyrrolopyridines as inhibitors of activin receptor-like kinase” (BLUEPRINT MEDICINES CORPORATION, priority 2017, dated 2022).
# Target: T1, ALK2R206H (mutant ALK2, N-terminally tagged with GST) (Homo sapiens, UniProt Q04771, R206H)
# T1 construct: purchased Carna Bioscience or ThermoFisher 09-148 or PV6232
# T1 sequence (Q04771 21-509 R206H): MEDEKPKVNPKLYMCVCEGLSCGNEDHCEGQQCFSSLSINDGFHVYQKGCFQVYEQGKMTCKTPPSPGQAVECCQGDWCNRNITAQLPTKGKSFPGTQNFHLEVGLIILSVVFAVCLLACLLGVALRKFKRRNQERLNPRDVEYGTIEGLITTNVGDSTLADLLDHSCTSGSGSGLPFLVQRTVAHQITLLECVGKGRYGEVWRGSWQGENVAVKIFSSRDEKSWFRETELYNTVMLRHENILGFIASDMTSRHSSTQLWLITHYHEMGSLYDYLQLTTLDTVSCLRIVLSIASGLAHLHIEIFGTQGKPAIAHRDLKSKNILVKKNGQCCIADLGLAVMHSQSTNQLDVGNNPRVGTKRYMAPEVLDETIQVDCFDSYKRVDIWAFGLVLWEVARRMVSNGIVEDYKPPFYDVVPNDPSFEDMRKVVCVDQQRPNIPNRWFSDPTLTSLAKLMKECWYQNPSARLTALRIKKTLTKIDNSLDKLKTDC
# Experiment: ALK binding assay (LANTHASCREEN TR-FRET competitive binding, displacement of Kinase Tracer 178)
# Settings: read-out: Binding Assay (IC50 class)
# Summary of the method: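 Competitive displacement of Kinase Tracer 178 (50 nM) from N-terminally GST-tagged mutant ALK2 R206H (2-5 nM) by compound, detected by TR-FRET with Eu-anti-GST antibody (4-10 nM). 30 min room temperature incubation, 1% DMSO final; normalized signal fitted to 4-parameter log dose response for IC50.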
row,SMILES,IC50
1,CCOC(=O)N1CCN(c2ccnc3[nH]c(-c4ncc(C)s4)cc23)CC1 [Compound 49],≤ 10 nM
2,Cn1cc(-c2[nH]c3nccc(N4CCN(C(=O)O[C@@H]5CCC5(F)F)CC4)c3c2C#N)cn1 [Compound 366],≤ 10 nM
3,Cc1nc(-c2cc3c(N4CCN(C(=O)OCC(F)F)CC4)ccnc3[nH]2)sc1C [Compound 291],≤ 10 nM
4,CCOC(=O)N1CCN(c2ccnc3[nH]c(-c4cnn(C)c4)c(F)c23)CC1 [Compound 50],≤ 10 nM
5,Cc1c(-c2cnn(C)c2)[nH]c2nccc(N3CCN(C(=O)O[C@H]4C[C@H](F)C4)CC3)c12 [Compound 245],≤ 10 nM
6,Cn1cc(-c2cc3c(N4CCN(C(=O)C5CC(F)(F)C5)CC4)ccnc3[nH]2)cn1 [Compound 180],≤ 10 nM
7,O=C(OC1COC1)N1CCN(c2ccnc3[nH]c(-c4nc5c(s4)CSCC5)cc23)CC1 [Compound 417],≤ 10 nM
8,CCN1CCC(c2ccc(-c3cc4c(N5CCN(C(=O)C6CC6)CC5)ccnc4[nH]3)cc2)C(F)(F)C1 (centres unmarked) [Compound 460],≤ 10 nM
9,Cn1cc(-c2cc3c(N4CCN(C(=O)O[C@H]5CC(F)(F)C5(F)F)CC4)ccnc3[nH]2)cn1 [Compound 401],≤ 10 nM
10,CCNC(=O)c1nc(-c2cc3c(N4CCN(C(=O)OC5COC5)CC4)ccnc3[nH]2)cs1 [Compound 415],≤ 10 nM
11,Cc1nn(C(C)C)cc1-c1cc2c(N3CCN(C(=O)OC4COC4)CC3)ccnc2[nH]1 [Compound 304],≤ 10 nM
12,Cc1nc(-c2[nH]c3nccc(N4CCN(C(=O)OCC(F)F)CC4)c3c2Cl)cn1C [Compound 363],≤ 10 nM
13,CC(C)COC(=O)N1CCN(c2ccnc3[nH]c(-c4cnn(C)c4)cc23)CC1 [Compound 97],≤ 10 nM

# Other lines, results leading:
row,IC50,SMILES
1,≤ 10 nM,CCOC(=O)N1CCN(c2ccnc3[nH]c(-c4ccc(OC(C)C)cc4)cc23)CC1 [Compound 221]
2,≤ 10 nM,Cc1nc(-c2cc3c(N4CCN(C(=O)OC5CCC5)CC4)ccnc3[nH]2)sc1C [Compound 242]
3,≤ 10 nM,Cn1ncc(-c2[nH]c3nccc(N4CCN(C(=O)OC5COC5)CC4)c3c2C#N)n1 [Compound 215]
4,≤ 10 nM,Cn1cc(-c2cc3c(N4CCN(C(=O)OC5COC5)CC4)ccnc3[nH]2)nn1 [Compound 105]
5,≤ 10 nM,O=C(C1CC1)N1CCN(c2ccnc3[nH]c(-c4cnn(C5CCCC5)c4)cc23)CC1 [Compound 197]
6,≤ 10 nM,Cc1nc(-c2cc3c(N4CCN(C(=O)OCC(F)F)CC4)ccnc3[nH]2)cn1C [Compound 190]
7,≤ 10 nM,CC(=O)N1CCc2sc(-c3[nH]c4nccc(N5CCN(C(=O)OC6COC6)CC5)c4c3C#N)nc2C1 [Compound 470]
8,≤ 10 nM,CC(C)c1cnc(-c2cc3c(N4CCN(C(=O)OC5COC5)CC4)ccnc3[nH]2)s1 [Compound 316]
9,≤ 10 nM,Cc1nc(-c2cc3c(N4CCN(C(=O)O[C@H]5C[C@@H](F)C5)CC4)ccnc3[nH]2)cn1C [Compound 243]

# Target: T2, human ALK2 R206H (Homo sapiens, UniProt Q04771, R206H)
# T2 construct: expressed in transfected cells; host or cells: HEK293 (ATCC CRL1573), lentivirus transduction, blasticidin selection
# T2 sequence (Q04771 21-509 R206H): T1 sequence (Q04771 21-509 R206H)
# Experiment: Cell-based ALK2-R206H cell activity assay (Smad1-Ser463/Ser465 phosphorylation by AlphaLISA in HEK293-ALK2-R206H cells)
# Settings: phospho-Smad1 AlphaLISA, read-out: Cell Line (Cell Assay, IC50 class)
# Procedure: Example 11. Cell-Based ALK2-R206H Cell Activity Assay
# A HEK293 (ATCC, Cat No. CRL1573) based stable cell line expressing human ALK2 R206H cDNA (synthesized by GeneScript, Piscataway, N.J.) and a FLAG tag at the C-terminus was generated by lentivirus transduction and subsequent blasticidin (Life Technologies, Cat No. A1113902) selection at 10 μg/ml for >2 wks. This cell line was named HEK293-ALK2-R206H.
# B. Measurement of Smad1-Ser463/Ser465 Phosphorylation by AlphaLISA
# HEK293-ALK2-R206H cells were grown, harvested, and then resuspended in serum-free, phenol red-free DMEM high glucose media (Life Technologies, Cat No. 31053). The media also contained 50 units/ml penicillin and 50 μg/ml streptomycin (Life Technologies, Cat. No. 15070-063). HEK293-ALK2-R206H cells were then plated in white opaque 384-wells microplates (2×10^4/well) (OptiPlate-384, PerkinElmer, Waltham, Mass., Cat No. 6007299) overnight (>16h) at 37° C. 5% CO2 for use in the assay.
# Test compounds were first diluted to 4 mM or 0.4 mM and then serially diluted 3-fold into 10 different concentrations using DMSO. Each concentration of compound was further diluted 40-fold with phenol red-free DMEM (Life Technologies, Cat No. 31053). 2 μl of the diluted compounds were then dispensed into the HEK293-ALK2-R206H cell-containing wells of the microplates in duplicates. In this way, each compound was tested in 10 doses (3-fold serial dilution with the top concentration being 10 μM or 1 μM). Liquid handling was achieved using a Bravo Automated Liquid Handling Platform (Agilent Technologies). DMSO without compound was used as a negative control. The positive control was 1 μM LDN193189, a known bone morphogenetic protein (BMP inhibitor).
# After 2-3 hours of incubation with test compound or control, the cells were lysed and signal was developed using ALPHASCREEN® SUREFIRE® SMAD1 (p-Ser463/465) cellular kinase assay kit (PerkinElmer, Cat No. TGRSM1S10K) following the manufacturer's recommended protocol. The microplates were read using Perkin Elmer ENVISION® plate reader (emission […]). The signal reflected the level of phospho-Ser/463/465-Smad1 in the lysate. The raw data were plotted using the DMSO negative and LDN193189 positive controls as the 0% and 100% inhibition, respectively. The 10-point dose response curve was used to calculate the IC50 values.
# The results of this assay are shown in Table 3 in the column labeled “Cell Assay” wherein “A” represents an IC50 of less than or equal to 100 nM; “B” an IC50 of greater than 100 nM and less than or equal to 500 nM; “C” an IC50 of greater than 500 nM. Blank values in the table indicate that the particular compound was not tested in this assay.
row,SMILES,IC50
1,CCOC(=O)N1CCN(c2ccnc3[nH]c(-c4ncc(C)s4)cc23)CC1 [Compound 49],100 to 500 nM
2,Cn1cc(-c2[nH]c3nccc(N4CCN(C(=O)O[C@@H]5CCC5(F)F)CC4)c3c2C#N)cn1 [Compound 366],≤ 100 nM
3,Cc1nc(-c2cc3c(N4CCN(C(=O)OCC(F)F)CC4)ccnc3[nH]2)sc1C [Compound 291],≤ 100 nM
4,CCOC(=O)N1CCN(c2ccnc3[nH]c(-c4cnn(C)c4)c(F)c23)CC1 [Compound 50],≤ 100 nM
5,Cc1c(-c2cnn(C)c2)[nH]c2nccc(N3CCN(C(=O)O[C@H]4C[C@H](F)C4)CC3)c12 [Compound 245],≤ 100 nM
6,Cn1cc(-c2cc3c(N4CCN(C(=O)C5CC(F)(F)C5)CC4)ccnc3[nH]2)cn1 [Compound 180],100 to 500 nM
7,O=C(OC1COC1)N1CCN(c2ccnc3[nH]c(-c4nc5c(s4)CSCC5)cc23)CC1 [Compound 417],≤ 100 nM
8,CCN1CCC(c2ccc(-c3cc4c(N5CCN(C(=O)C6CC6)CC5)ccnc4[nH]3)cc2)C(F)(F)C1 (centres unmarked) [Compound 460],≤ 100 nM
9,Cn1cc(-c2cc3c(N4CCN(C(=O)O[C@H]5CC(F)(F)C5(F)F)CC4)ccnc3[nH]2)cn1 [Compound 401],≤ 100 nM
10,CCNC(=O)c1nc(-c2cc3c(N4CCN(C(=O)OC5COC5)CC4)ccnc3[nH]2)cs1 [Compound 415],100 to 500 nM
11,Cc1nn(C(C)C)cc1-c1cc2c(N3CCN(C(=O)OC4COC4)CC3)ccnc2[nH]1 [Compound 304],≤ 100 nM
12,Cc1nc(-c2[nH]c3nccc(N4CCN(C(=O)OCC(F)F)CC4)c3c2Cl)cn1C [Compound 363],≤ 100 nM
13,CC(C)COC(=O)N1CCN(c2ccnc3[nH]c(-c4cnn(C)c4)cc23)CC1 [Compound 97],100 to 500 nM

# Next, values leading:
row,IC50,SMILES
1,100 to 500 nM,CCOC(=O)N1CCN(c2ccnc3[nH]c(-c4ccc(OC(C)C)cc4)cc23)CC1 [Compound 221]
2,≤ 100 nM,Cc1nc(-c2cc3c(N4CCN(C(=O)OC5CCC5)CC4)ccnc3[nH]2)sc1C [Compound 242]
3,100 to 500 nM,Cn1ncc(-c2[nH]c3nccc(N4CCN(C(=O)OC5COC5)CC4)c3c2C#N)n1 [Compound 215]
4,100 to 500 nM,Cn1cc(-c2cc3c(N4CCN(C(=O)OC5COC5)CC4)ccnc3[nH]2)nn1 [Compound 105]
5,≤ 100 nM,O=C(C1CC1)N1CCN(c2ccnc3[nH]c(-c4cnn(C5CCCC5)c4)cc23)CC1 [Compound 197]
6,≤ 100 nM,Cc1nc(-c2cc3c(N4CCN(C(=O)OCC(F)F)CC4)ccnc3[nH]2)cn1C [Compound 190]
7,≤ 100 nM,CC(=O)N1CCc2sc(-c3[nH]c4nccc(N5CCN(C(=O)OC6COC6)CC5)c4c3C#N)nc2C1 [Compound 470]
8,≤ 100 nM,CC(C)c1cnc(-c2cc3c(N4CCN(C(=O)OC5COC5)CC4)ccnc3[nH]2)s1 [Compound 316]
9,≤ 100 nM,Cc1nc(-c2cc3c(N4CCN(C(=O)O[C@H]5C[C@@H](F)C5)CC4)ccnc3[nH]2)cn1C [Compound 243]
